Measurements from US9023789B2, “Amylin analogs and pharmaceutical compositions thereof” (Novo Nordisk A/S, priority 2012, dated 2015).
Numbered stars: 1 amine (or outer) side, 2 acyl side, 3 side chain; on linkers, the order of the positions; unused ones are H or OH. Bridge positions count the residues as written; N and C are the ends. Side chains are listed from the residue outwards. Peptide text beside a SMILES is read from it. * marks the point of attachment. C20 diacid = O=C(O)CCCCCCCCCCCCCCCCCCC(=O)*; γGlu = O=C(O)[C@H](CCC(=O)[*:2])N[*:1]

Columns and labels:
[1] = biological target: T1, human amylin 3(a) receptor (human calcitonin receptor + RAMP-3) in BHK570 cells (Homo sapiens, UniProt O60896+P30988); assay: ASSAY (II)a functional assay, human amylin receptor (CRE luciferase); assay type: cell-based; details: for EC50: human amylin receptor functional potency, assay (II), read-out: hAmylin-R funct. EC50
T1 construct: expressed in transfected cells
How it was run: (§1)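 BHK cells stably carrying a CRE-luciferase reporter plus calcitonin receptor, or calcitonin receptor with RAMP-3 for the amylin 3(a) receptor, were seeded and kept overnight at 37° C. Compounds were added in assay medium with 10% FBS and 10 mM Hepes, pH 7.4, for 3 hours at 37° C, then luminescence was counted.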

[2] = ASSAY (X) pK, determination of T½ in rat; assay type: in vivo; details: male, Sprague Dawley, plasma, iv, 20 nmol/kg
rat calcitonin receptor = biological target: T2, rat calcitonin receptor (Rattus norvegicus, UniProt P32214); assay: ASSAY (VIII) binding to the rat calcitonin receptor; details: Table 7, read-out: rCTR bind IC50
T2 construct: expressed in transfected cells; host or cells: BHK tk'ts 13 (transient, FuGENE 6), membranes
T2 sequence (P32214 25-479 isoform P32214-2 limits assumed): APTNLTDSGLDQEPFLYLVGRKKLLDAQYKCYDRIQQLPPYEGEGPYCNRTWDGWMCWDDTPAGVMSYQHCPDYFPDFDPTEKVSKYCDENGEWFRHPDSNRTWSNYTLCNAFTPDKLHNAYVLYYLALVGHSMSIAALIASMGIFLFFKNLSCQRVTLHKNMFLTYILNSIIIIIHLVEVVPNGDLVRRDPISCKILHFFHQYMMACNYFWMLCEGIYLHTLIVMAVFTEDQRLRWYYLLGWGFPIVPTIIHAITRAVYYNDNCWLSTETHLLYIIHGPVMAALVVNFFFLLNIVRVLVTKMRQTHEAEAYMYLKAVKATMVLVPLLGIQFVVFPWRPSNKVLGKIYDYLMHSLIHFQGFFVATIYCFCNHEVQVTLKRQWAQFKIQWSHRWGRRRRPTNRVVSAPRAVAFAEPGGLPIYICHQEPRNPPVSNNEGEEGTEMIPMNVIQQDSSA
How it was run: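 Rat calcitonin receptor is expressed transiently in BHK tk′ts 13 cells cultured in DMEM with 10% FBS. Roughly two days (approximately 48 hours) post-transfection, cells are harvested for membrane preparation.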

[3] = biological target: T3, human amylin receptor (membranes from Amylin 3(a)/CRE-luc cells) (Homo sapiens, UniProt O60896+P30988); assay: ASSAY (V) binding to the human amylin receptor (SPA, 125I-rat amylin); details: for IC50: Table 4, read-out: hAmylin-R bind IC50;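 for all read-outs here: competition binding of cell membranes (35 ng/µL) mixed with SPA beads in 384-well plates at 40 µL total volume, read by scintillation counting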
T3 construct: expressed in transfected cells
T3 sequence (P30988 25-474): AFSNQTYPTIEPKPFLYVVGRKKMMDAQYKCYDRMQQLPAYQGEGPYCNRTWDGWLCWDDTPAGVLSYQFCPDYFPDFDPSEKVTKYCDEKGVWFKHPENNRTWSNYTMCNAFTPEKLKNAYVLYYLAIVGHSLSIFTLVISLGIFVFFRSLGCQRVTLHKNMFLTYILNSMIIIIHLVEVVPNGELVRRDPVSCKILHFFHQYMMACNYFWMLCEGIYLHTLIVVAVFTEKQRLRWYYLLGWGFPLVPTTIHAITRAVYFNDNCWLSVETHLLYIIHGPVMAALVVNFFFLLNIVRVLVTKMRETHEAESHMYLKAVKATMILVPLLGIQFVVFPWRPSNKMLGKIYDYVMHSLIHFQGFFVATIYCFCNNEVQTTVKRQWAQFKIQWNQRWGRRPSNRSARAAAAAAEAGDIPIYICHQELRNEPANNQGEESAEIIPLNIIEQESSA
T3 sequence (O60896 24-148 partner): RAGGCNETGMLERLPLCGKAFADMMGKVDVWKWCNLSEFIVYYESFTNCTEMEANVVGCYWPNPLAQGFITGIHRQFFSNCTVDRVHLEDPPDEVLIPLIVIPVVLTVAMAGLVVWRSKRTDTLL

[4] = biological target: T4, rat amylin receptor (rat calcitonin receptor + rat RAMP 3) (Rattus norvegicus, UniProt P32214+Q9JJ73); assay: ASSAY (VI) binding to the rat amylin receptor; details: for IC50: binding to rat amylin receptor, read-out: rAmylin-R bind IC50
T4 construct: expressed in transfected cells; host or cells: BHK tk'ts 13 (transient, FuGENE 6), membranes
T4 sequence (P32214 25-479 isoform P32214-2 limits assumed): T2 sequence (P32214 25-479 isoform P32214-2 limits assumed)
T4 sequence (Q9JJ73 23-147 partner): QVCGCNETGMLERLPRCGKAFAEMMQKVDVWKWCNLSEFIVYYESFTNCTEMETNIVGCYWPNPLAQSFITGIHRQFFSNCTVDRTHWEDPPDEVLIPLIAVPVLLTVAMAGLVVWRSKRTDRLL
How it was run: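 Binding to the rat amylin receptor was determined with membrane preparations. The receptor was expressed by transiently transfecting BHK tk′ts 13 cells with rat calcitonin receptor, using FuGENE® 6 (Roche) according to the manufacturer's recommendations. Roughly 48 hours later the cells were harvested and their membranes isolated.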

[5] = biological target: T5, human calcitonin (a) receptor in BHK570 cells (Homo sapiens, UniProt P30988); assay: ASSAY (II)a functional assay, human calcitonin receptor (CRE luciferase); assay type: cell-based; details: read-out: hCTR funct. EC50
T5 construct: expressed in transfected cells
T5 sequence (P30988 25-474): T3 sequence (P30988 25-474)
How it was run: as §1

[6] = biological target: T6, human calcitonin receptor (Homo sapiens, UniProt P30988); assay: ASSAY (VII) binding to the human calcitonin receptor (SPA, 125I-Calcitonin); details: read-out: hCTR bind IC50;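 note: cell membranes (35 ng/µL) combined with SPA beads in 40 µL of pH 7.4 Hepes buffer, 384-well format, signal counted on a TopCounter instrument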
T6 construct: expressed in transfected cells
T6 sequence (P30988 25-474): T3 sequence (P30988 25-474)
Description: Membranes were prepared in the following way; the cells were rinsed with PBS and incubated with Versene for approximately 5 min before harvesting. The cells were flushed with PBS and the cell-suspension was centrifuged for 5 min at 1000 rpm. […] The resulting pellet was resuspended in buffer 2 and protein concentration was measured (BCA protein Assay, Pierce). The homogenate was kept cold during the whole procedure. The membranes were kept at −80° C. until use. Assay was performed in a 384 well Optiplate (PerkinElmer) in a total volume of 40 ul. Membranes were mixed with SPA beads. Final concentration of membranes 35 ng/μL final and Final concentration of SPA beads was 0.05 mg/well. Test-compounds were dissolved in DMSO and further diluted in assay buffer (50 mM Hepes, pH 7.4, 1 mM CaCl2, 5 mM MgCl2, 0.1% OA and 0.02% Tween20). […] Samples were analyzed on TopCounter™ (Packard).

[7] = hCTR funct. EC50 divided by hAmylin-R funct. EC50
[8] = hCTR funct. EC50 over hAmylin-R funct. EC50
[9] = human functional selectivity: hCTR funct. EC50 / hAmylin-R funct. EC50
[10] = Table 5, selectivity, hCTR bind IC50 / hAmylin-R bind IC50
[11] = Table 5a, selectivity, hCTR bind IC50 / hAmylin-R bind IC50
[12] = Table 5b, selectivity, hCTR bind IC50 / hAmylin-R bind IC50
[13] = Table 5c, selectivity, hCTR bind IC50 / hAmylin-R bind IC50
[14] = Table 7, human binding selectivity, included for comparison
[15] = Table 7a (preferred compounds), human binding selectivity, included for comparison
[16] = ratio of human calcitonin receptor binding IC50 to human amylin receptor binding IC50
[17] = Table 7, rat binding selectivity, rCTR IC50 / rAmylin-R IC50
[18] = Table 7a (preferred compounds), rat binding selectivity, rCTR IC50 / rAmylin-R IC50
[19] = ratio of rCTR bind IC50 to rAmylin-R bind IC50

Structure (SMILES) | Ratio hCT/hAmylin funct. [1, 7] | Ratio hCT/hAmylin funct. [1, 8] | Ratio hCT/hAmylin funct. [1, 9] | IC50 (rat calcitonin receptor) | Ratio hCT/hAmylin binding [3, 10] | Ratio hCT/hAmylin binding [3, 11] | Ratio hCT/hAmylin binding [3, 12] | Ratio hCT/hAmylin binding [3, 13] | Ratio hCT/hAmylin binding [3, 14] | Ratio hCT/hAmylin binding [3, 15] | Ratio hCT/hAmylin binding [3, 16] | IC50 ([4]; Table 7) | Ratio rCT/rAmylin binding [4, 17] | Ratio rCT/rAmylin binding [4, 18] | Ratio rCT/rAmylin binding [4, 19] | EC50 [1] | EC50 [5] | IC50 [3] | IC50 [6] | also measured
CC[C@H](C)[C@H](NC(=O)[C@H](C)NC(=O)CNC(=O)[C@H](Cc1ccccc1)NC(=O)[C@H](CC(N)=O)NC(=O)[C@@H]1CCCN1C(=O)[C@H](CO)NC(=O)[C@H](CO)NC(=O)[C@H](Cc1c[nH]cn1)NC(=O)[C@H](CCCNC(=N)N)NC(=O)[C@H](CC(C)C)NC(=O)[C@H](Cc1ccccc1)NC(=O)[C@H](CC(=O)O)NC(=O)[C@H](C)NC(=O)[C@H](CC(C)C)NC(=O)[C@H](CCCNC(=N)N)NC(=O)[C@H](CCC(N)=O)NC(=O)[C@@H](NC(=O)[C@H](C)NC(=O)[C@@H]1CSSC[C@H](NC(=O)[C@@H](N)CCCCNC(=O)CC[C@H](NC(=O)CC[C@H](NC(=O)CCCCCCCCCCCCCCCCCCC(=O)O)C(=O)O)C(=O)O)C(=O)N[C@@H](CC(N)=O)C(=O)N[C@@H]([C@@H](C)O)C(=O)N[C@@H](C)C(=O)N[C@@H]([C@@H](C)O)C(=O)N1)[C@@H](C)O)C(=O)N1CCC[C@H]1C(=O)N[C@@H](CO)C(=O)N[C@@H](CO)C(=O)N[C@H](C(=O)N[C@@H](CC(N)=O)C(=O)N[C@H](C(=O)NCC(=O)N[C@@H](CO)C(=O)N[C@@H](CC(=O)O)C(=O)N[C@H](C(=O)N[C@@H](Cc1ccc(O)cc1)C(N)=O)[C@@H](C)O)C(C)C)[C@@H](C)O [Example 2] (H-K([γGlu-γGlu-C20 diacid])CNTATCATQRLADFLRHSSPNFGAIPSSTNVGSDTY-NH2; disulfide 2-7; N-terminus assumed) | 16.4 | 16.4 | 16.4 | 108 nM | 47.5 | 47.5 | 47.5 | 47.5 | 47.5 | 47.5 | 47.5 | 0.295 nM | 365.7 | 365.7 | 365.7 | – | – | – | – | half-life [2]: 28 h
CC[C@H](C)[C@H](NC(=O)[C@H](C)NC(=O)CNC(=O)[C@H](Cc1ccccc1)NC(=O)[C@H](CC(N)=O)NC(=O)[C@@H]1CCCN1C(=O)[C@H](CO)NC(=O)[C@H](CO)NC(=O)[C@H](Cc1c[nH]cn1)NC(=O)[C@H](CCCNC(=N)N)NC(=O)[C@H](CC(C)C)NC(=O)[C@H](Cc1ccccc1)NC(=O)[C@H](CC(=O)O)NC(=O)[C@H](C)NC(=O)[C@H](CC(C)C)NC(=O)[C@H](CCCNC(=N)N)NC(=O)[C@H](CCC(N)=O)NC(=O)[C@@H](NC(=O)[C@H](C)NC(=O)[C@@H]1CSSC[C@H](NC(=O)[C@@H](N)CCCCNC(=O)CC[C@H](NC(=O)CCCCCCCCCCCCCCCCCCC(=O)O)C(=O)O)C(=O)N[C@@H](CC(N)=O)C(=O)N[C@@H]([C@@H](C)O)C(=O)N[C@@H](C)C(=O)N[C@@H]([C@@H](C)O)C(=O)N1)[C@@H](C)O)C(=O)N1CCC[C@H]1C(=O)N[C@@H](CO)C(=O)N[C@@H](CO)C(=O)N[C@H](C(=O)N[C@@H](CC(N)=O)C(=O)N[C@H](C(=O)NCC(=O)N1CCC[C@H]1C(=O)N[C@@H](CCC(=O)O)C(=O)N[C@H](C(=O)N[C@@H](Cc1ccc(O)cc1)C(N)=O)[C@@H](C)O)C(C)C)[C@@H](C)O [Example 123] (H-K([γGlu-C20 diacid])CNTATCATQRLADFLRHSSPNFGAIPSSTNVGPETY-NH2; disulfide 2-7; N-terminus assumed) | 3.9 | 3.9 | 3.9 | 18.6 nM | 16.7 | 16.7 | 16.7 | – | 16.7 | 16.7 | 16.7 | 0.3 nM | 62.0 | 62.0 | 62.0 | 0.288 nM | 1.11 nM | 0.196 nM | 3.27 nM | Ratio hCT/hAmylin funct. ([1]; hCTR funct. EC50 / hAmylin-R funct. EC50): 3.9
CC[C@H](C)[C@H](NC(=O)[C@H](C)NC(=O)CNC(=O)[C@H](Cc1ccccc1)NC(=O)[C@H](CC(N)=O)NC(=O)[C@@H]1CCCN1C(=O)[C@H](CO)NC(=O)[C@H](CO)NC(=O)[C@H](Cc1c[nH]cn1)NC(=O)[C@H](CCCNC(=N)N)NC(=O)[C@H](CC(C)C)NC(=O)[C@H](Cc1ccccc1)NC(=O)[C@H](CC(=O)O)NC(=O)[C@H](C)NC(=O)[C@H](CC(C)C)NC(=O)[C@H](CCCNC(=N)N)NC(=O)[C@H](CCC(N)=O)NC(=O)[C@@H](NC(=O)[C@H](C)NC(=O)[C@@H]1CSSC[C@H](NC(=O)[C@@H](N)CCCCNC(=O)CC[C@H](NC(=O)CCCCCCCCCCCCCCCCCCC(=O)O)C(=O)O)C(=O)N[C@@H](CC(N)=O)C(=O)N[C@@H]([C@@H](C)O)C(=O)N[C@@H](C)C(=O)N[C@@H]([C@@H](C)O)C(=O)N1)[C@@H](C)O)C(=O)N1CCC[C@H]1C(=O)N[C@@H](CO)C(=O)N[C@@H](CO)C(=O)N[C@H](C(=O)N[C@@H](CC(N)=O)C(=O)N[C@H](C(=O)NCC(=O)N1CCC[C@H]1C(=O)N[C@@H](CCCNC(=N)N)C(=O)N[C@H](C(=O)N[C@@H](Cc1ccc(O)cc1)C(N)=O)[C@@H](C)O)C(C)C)[C@@H](C)O [Example 129] (H-K([γGlu-C20 diacid])CNTATCATQRLADFLRHSSPNFGAIPSSTNVGPRTY-NH2; disulfide 2-7 (inferred); N-terminus assumed) | 24.9 | 24.9 | 24.9 | 58.5 nM | 151.1 | 151.1 | 151.1 | 151.1 | 151.1 | 151.1 | 151.1 | 0.504 nM | 116.0 | 116.0 | 116.0 | 0.146 nM | 3.64 nM | 0.281 nM | 42.5 nM | –
